Laboratory results: patent US20240067668A1, “HETEROARYL DERIVATIVE COMPOUND AND USE THEREOF” (VORONOI INC., priority 2020, published 2024)

Assays:
[1] = target: EGFR Del19/T790M/C797S (Homo sapiens, UniProt P00533, C797S/T790M, form not given); assay: Enzyme IC50, EGFR Del19/T790M/C797S; type: biochemical
[2] = tested on: BaF3-EGFR (Del19/T790M/C797S) cells; assay: Inhibitory activity on Ba/F3 cell proliferation (CellTiter-Glo, 72 hours); type: cell-based; conditions: Ba/F3 cells expressing EGFR Del19/T790M/C797S
Method: (§1) The following experiments were performed to evaluate the inhibitory activity of the compound represented by Chemical Formula 1 according to the present invention on the proliferation of Ba/F3 cells expressing EGFR mutants.
(§2) BaF3-EGFR (WT) and BaF3-EGFR (Del19/T790M/C797S) cells were seeded in a clear bottom white 96-well plate at a density of 3×10^3/100 μl/well, and then 0.5 μl/well of the culture medium, containing the compounds at 12 concentrations (0.00001-2 mM) serially diluted in 3 folds and the DMSO control, was added to a final concentration of 0.00005-10 μM, followed by culturing in a 37° C. CO2 incubator for 72 hours. After 72 hours, the plates treated with the compounds were taken out, treated with 100 μl/well of CellTiter-Glo® 2.0 Assay (Promega) solution, and mixed well. After mixing well at room temperature for about 10 minutes, […] was measured using a microplate reader. As to Data, GI50 (μM) values were calculated using GraphPad Prism 8.3.0 (GraphPad software Inc., San Diego) as percentages in proportion to vehicle-based treated cells. The result values were calculated as a cell growth rate (%) compared to the control group. A graph was created using the GraphPad Prism version 5.0 program, and GI50 (μM) values were calculated.

[3] = tested on: BaF3-EGFR (WT) cells; assay: as above; type: cell-based; conditions: Ba/F3 cells expressing EGFR WT
Method: as §1, §2

EGFR Del19/T790M/C797S, sequence (P00533 25-1210 T790M/C797S, form open): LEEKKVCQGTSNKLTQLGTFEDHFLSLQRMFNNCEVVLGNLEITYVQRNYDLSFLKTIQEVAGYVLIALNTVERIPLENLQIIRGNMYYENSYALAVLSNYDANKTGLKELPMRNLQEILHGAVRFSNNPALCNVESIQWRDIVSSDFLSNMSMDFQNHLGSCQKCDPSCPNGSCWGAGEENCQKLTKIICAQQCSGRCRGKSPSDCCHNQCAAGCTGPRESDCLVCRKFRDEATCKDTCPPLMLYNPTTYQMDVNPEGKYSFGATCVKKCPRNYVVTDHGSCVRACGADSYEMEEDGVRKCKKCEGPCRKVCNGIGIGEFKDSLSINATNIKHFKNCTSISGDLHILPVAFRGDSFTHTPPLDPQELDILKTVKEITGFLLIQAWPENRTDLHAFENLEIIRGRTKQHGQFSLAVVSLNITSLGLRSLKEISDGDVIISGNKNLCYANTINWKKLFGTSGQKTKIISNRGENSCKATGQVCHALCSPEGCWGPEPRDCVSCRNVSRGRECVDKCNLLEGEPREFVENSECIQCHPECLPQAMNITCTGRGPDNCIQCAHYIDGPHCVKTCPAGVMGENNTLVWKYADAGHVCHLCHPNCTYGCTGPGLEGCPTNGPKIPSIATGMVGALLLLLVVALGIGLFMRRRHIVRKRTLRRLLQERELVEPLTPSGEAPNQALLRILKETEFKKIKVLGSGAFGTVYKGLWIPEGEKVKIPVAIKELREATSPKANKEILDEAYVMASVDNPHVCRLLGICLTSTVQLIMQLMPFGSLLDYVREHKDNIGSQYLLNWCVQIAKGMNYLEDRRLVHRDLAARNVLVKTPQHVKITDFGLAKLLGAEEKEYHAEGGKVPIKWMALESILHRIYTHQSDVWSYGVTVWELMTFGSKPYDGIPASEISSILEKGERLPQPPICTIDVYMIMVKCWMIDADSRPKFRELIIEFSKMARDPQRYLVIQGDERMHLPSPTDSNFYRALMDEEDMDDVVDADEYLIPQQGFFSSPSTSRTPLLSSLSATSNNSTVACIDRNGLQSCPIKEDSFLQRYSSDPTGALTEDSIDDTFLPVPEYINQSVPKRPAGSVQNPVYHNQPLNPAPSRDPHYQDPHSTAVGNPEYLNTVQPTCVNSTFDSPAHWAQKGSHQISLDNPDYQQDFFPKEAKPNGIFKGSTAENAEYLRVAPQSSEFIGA

| Structure (SMILES) | IC50 [1] [µM] | GI50 [2] [µM] | GI50 [3] [µM] |
| --- | --- | --- | --- |
| COc1nc(N2CCN(C)CC2)c(-c2cnn(C)c2)cc1Nc1nc(Nc2ccc3nccnc3c2P(C)(C)=O)c2cc[nH]c2n1 [Example 44, (6-((2-((2-methoxy-5-(1-methyl-1H-pyrazol-4-yl)-6-(4-methyl-piperazin-1-yl)pyridin-3-yl)amino)-7H-pyrrolo[2,3-d]pyrimidin-4-yl)amino)quinoxalin-5-yl)dimethyl-phosphine oxide] | ≤ 0.05 | ≤ 0.05 | > 0.1 |
| COc1cc(N2C[C@H]3C[C@@H]2CO3)c(-c2cnn(C)c2)cc1Nc1nc(Nc2ccc3nccnc3c2P(C)(C)=O)c2cc[nH]c2n1 [Example 27] | ≤ 0.05 | ≤ 0.05 | > 0.1 |
| COc1cc(N2CCN(C)CC2)c(-c2ccsc2)cc1Nc1nc(Nc2ccc3nccnc3c2P(C)(C)=O)c2cc[nH]c2n1 [Example 76, (6-((2-((2-methoxy-4-(4-methylpiperazin-1-yl)-5-(thiophen-3-yl)phenyl)amino)-7H-pyrrolo[2,3-d]pyrimidin-4-yl)amino)quinoxalin-5-yl)dimethyl-phosphine oxide] | ≤ 0.05 | > 0.1 | > 0.1 |
| Cn1nccc1-c1ccc(Nc2nc(Nc3ccc4nccnc4c3P(C)(C)=O)c3cc[nH]c3n2)c2c1OCCO2 [Example 131, dimethyl (6-((2-((8-(1-methyl-1H-pyrazol-5-yl)-2,3-dihydrobenzo [b][1,4]dioxin-5-yl)amino)-7H-pyrrolo[2,3-d]pyrimidin-4-yl)amino)quinoxalin-5-yl)phosphine oxide] | > 0.1 | > 0.1 | > 0.1 |
| Cc1cn(-c2cc(Nc3nc(Nc4ccc5nccnc5c4P(C)(C)=O)c4cc[nH]c4n3)cc(C(F)(F)F)c2)cn1 [Example 106, dimethyl (6-((2-((3-(4-methyl-1H-imidazol-1-yl)-5-(trifluoromethyl)phenyl)amino)-7H-pyrrolo[2,3-d]pyrimidin-4-yl)amino)quinoxalin-5-yl)phosphine oxide] | ≤ 0.05 | > 0.1 | > 0.1 |
| CN1CCN(C2CCN(c3cc(OCC(F)(F)F)c(Nc4nc(Nc5ccc6nccnc6c5P(C)(C)=O)c5cc[nH]c5n4)cc3-c3cnn(C)c3)CC2)CC1 [Example 4, dimethyl (6-((2-((5-(1-methyl-1H-pyrazol-4-yl)-4-(4-(4-methylpiperazin-1-yl)piperidin-1-yl)-2-(2,2,2-trifluoroethoxy)phenyl)amino)-7H-pyrrolo[2,3-d]pyrimidin-4-yl)amino)quinoxalin-5-yl) phosphine oxide] | ≤ 0.05 | 0.05 to 0.1 | > 0.1 |
| CCN1CCN(c2cc(OC)c(Nc3nc(Nc4ccc5nccnc5c4P(C)(C)=O)c4cc[nH]c4n3)cc2-c2cnn(C(C)C)c2)CC1 [Example 48, (6-((2-((4-(4-ethylpiperazin-1-yl)-5-(1-isopropyl-1H-pyrazol-4-yl)-2-methoxyphenyl)amino)-7H-pyrrolo[2,3-d]pyrimidin-4-yl)amino)quinoxalin-5-yl)dimethyl-phosphine oxide] | ≤ 0.05 | > 0.1 | > 0.1 |
| COc1cc(N2CCN(C)CC2)c(-c2cnn(C(F)F)c2)cc1Nc1nc(Nc2ccc3nccnc3c2P(C)(C)=O)c2cc[nH]c2n1 [Example 50, (6-((2-((5-(1-(difluoromethyl)-1H-pyrazol-4-yl)-2-methoxy-4-(4-methyl-piperazin-1-yl)phenyl)amino)-7H-pyrrolo[2,3-d]pyrimidin-4-yl)amino)quinoxalin-5-yl)dimethyl-phosphine oxide] | ≤ 0.05 | ≤ 0.05 | > 0.1 |
| Cn1cc(-c2cc(Nc3nc(Nc4ccc5nccnc5c4P(C)(C)=O)c4cc[nH]c4n3)c3c(c2N2CCC(N4CCOCC4)CC2)CCO3)cn1 [Example 120, dimethyl (6-((2-((5-(1-methyl-1H-pyrazol-4-yl)-4-(4-morpholino-piperidin-1-yl)-2,3-dihydrobenzo-furan-7-yl)amino)-7H-pyrrolo[2,3-d]pyrimidin-4-yl)amino)quinoxalin-5-yl)phosphine oxide] | ≤ 0.05 | ≤ 0.05 | 0.05 to 0.1 |
| COc1cc(N2CCC3(CCN(C(=O)C4(F)CC4)CC3)CC2)c(-c2cnn(C)c2)cc1Nc1nc(Nc2ccc3nccnc3c2P(C)(C)=O)c2cc[nH]c2n1 [Example 111, (9-(4-((4-((5-(dimethyl-phosphoryl)quinoxalin-6-yl)amino)-7H-pyrrolo[2,3-d]pyrimidin-2-yl)amino)-5-methoxy-2-(1-methyl-1H-pyrazol-4-yl)phenyl)-3,9-diazaspiro[5.5]undecan-3-yl)(1-fluorocyclo-propyl) methanone] | > 0.1 | ≤ 0.05 | > 0.1 |
| Cc1cc(Nc2nc(Nc3ccc4nccnc4c3P(C)(C)=O)c3cc[nH]c3n2)c2c(c1N1CCOCC1)CCO2 [Example 122, dimethyl (6-((2-((5-methyl-4-morpholino-2,3-dihydrobenzo-furan-7-yl)amino)-7H-pyrrolo[2,3-d]pyrimidin-4-yl)amino)quinoxalin-5-yl)phosphine oxide] | ≤ 0.05 | > 0.1 | > 0.1 |
| COc1cc(N2CCC(N3CCN(C)CC3)CC2)c(Cl)cc1Nc1nc(Nc2ccc3nccnc3c2P(C)(C)=O)c2cc[nH]c2n1 [Example 56, (6-((2-((5-chloro-2-methoxy-4-(4-(4-methylpiperazin-1-yl)piperidin-1-yl)phenyl)amino)-7H-pyrrolo[2,3-d]pyrimidin-4-yl)amino)quinoxalin-5-yl)dimethyl-phosphine oxide] | ≤ 0.05 | ≤ 0.05 | > 0.1 |
| Cn1cc(-c2cc(Nc3nc(Nc4ccc5nccnc5c4P(C)(C)=O)c4cc[nH]c4n3)ccc2N2CCOCC2)cn1 [Example 34, dimethyl (6-((2-((3-(1-methyl-1H-pyrazol-4-yl)-4-morpholino-phenyl)amino)-7H-pyrrolo[2,3-d]pyrimidin-4-yl)amino)quinoxalin-5-yl)phosphine oxide] | ≤ 0.05 | ≤ 0.05 | > 0.1 |
| COc1cc(OCCN(C)C)c(-c2cnn(C)c2)cc1Nc1nc(Nc2ccc3nccnc3c2P(C)(C)=O)c2cc[nH]c2n1 [Example 35, (6-((2-((4-(2-(dimethylamino)ethoxy)-2-methoxy-5-(1-methyl-1H-pyrazol-4-yl)phenyl)amino)-7H-pyrrolo[2,3-d]pyrimidin-4-yl)amino)quinoxalin-5-yl)dimethyl-phosphine oxide] | ≤ 0.05 | ≤ 0.05 | > 0.1 |
| COc1cc(N2CCN(C)CC2)c(-c2cnn(C3CC3)c2)cc1Nc1nc(Nc2ccc3nccnc3c2P(C)(C)=O)c2cc[nH]c2n1 [Example 115, (6-((2-((5-(1-cyclopropyl-1H-pyrazol-4-yl)-2-methoxy-4-(4-methylpiperazin-1-yl)phenyl)amino)-7H-pyrrolo[2,3-d]pyrimidin-4-yl)amino)quinoxalin-5-yl)dimethyl-phosphine oxide] | ≤ 0.05 | 0.05 to 0.1 | > 0.1 |
| COc1cc(N2CCN(CC3(F)CC3)CC2)c(-c2cnn(C)c2)cc1Nc1nc(Nc2ccc3nccnc3c2P(C)(C)=O)c2cc[nH]c2n1 [Example 113, (6-((2-((4-(4-((1-fluorocyclo-propyl)methyl)piperazin-1-yl)-2-methoxy-5-(1-methyl-1H-pyrazol-4-yl)phenyl)amino)-7H-pyrrolo[2,3-d]pyrimidin-4-yl)amino)quinoxalin-5-yl)dimethyl-phosphine oxide] | ≤ 0.05 | ≤ 0.05 | > 0.1 |
| Cc1cc(Nc2nc(Nc3ccc4nccnc4c3P(C)(C)=O)c3cc[nH]c3n2)c(OCC(F)(F)F)cc1N1CCC(N2CCOCC2)CC1 [Example 12, dimethyl (6-((2-((5-methyl-4-(4-morpholino-piperidin-1-yl)-2-(2,2,2-trifluoroethoxy)phenyl)amino)-7H-pyrrolo[2,3-d]pyrimidin-4-yl)amino)quinoxalin-5-yl) phosphineoxide] | – | > 0.1 | > 0.1 |
| COc1cc(N2CCN(C(C)(C)CF)CC2)c(-c2cnn(C)c2)cc1Nc1nc(Nc2ccc3nccnc3c2P(C)(C)=O)c2cc[nH]c2n1 [Example 109, (6-((2-((4-(4-(1-fluoro-2-methylpropan-2-yl)piperazin-1-yl)-2-methoxy-5-(1-methyl-1H-pyrazol-4-yl)phenyl)amino)-7H-pyrrolo[2,3-d]pyrimidin-4-yl)amino)quinoxalin-5-yl)dimethyl-phosphine oxide] | – | ≤ 0.05 | > 0.1 |
| COc1cc(N2CCC(N3CCN(C)CC3)CC2)c(C(C)C)cc1Nc1nc(Nc2ccc3nccnc3c2P(C)(C)=O)c2cc[nH]c2n1 [Example 67, (6-((2-((5-isopropyl-2-methoxy-4-(4-(4-methylpiperazin-1-yl)piperidin-1-yl)phenyl)amino)-7H-pyrrolo[2,3-d]pyrimidin-4-yl)amino)quinoxalin-5-yl)dimethyl-phosphine oxide] | – | > 0.1 | > 0.1 |
